From article PMC6968383, “Design, synthesis, in vitro and in vivo evaluation of benzylpiperidine-linked 1,3-dimethylbenzimidazolinones as cholinesterase inhibitors against Alzheimer’s disease” (Journal of Enzyme Inhibition and Medicinal Chemistry, 2019)

Assays:
[1] = system: scopolamine-induced cognition impairment in ICR mice; assay: Morris water maze test, scopolamine-induced cognition impairment; format: in vivo; conditions: oral 15 mg kg−1, scopolamine 1 mg kg−1 ip, probe trial on sixth day, mean ± SEM n = 6
Description: The test included 5 days of learning and memory training and a probe trial on the sixth day.
Scopolamine hydrobromide was supplied by Aladdin Reagents (H1507073, Shanghai, China).
Cognitive function was evaluated by the Morris water maze analysis-management system (SMART 3.0, Panlab, Madrid, Spain), according to the method previously described[30].The maze was placed in a lit room with visual cues at 25 °C. An escape platform (10 cm diameter) was located in the centre of one quadrant of the circular pool (120 cm diameter, 60 cm height) with a depth of 40 cm water. The behavioural study of each mouse included 5 days of learning and memory training and a probe trial on day 6. The animal starting positions faced to the pool wall, and were pseudorandomised for each trial. For the cognitive evaluation, each mouse was individually evaluated on both visible-platform (days 1–2) and hidden-platform (days 3–5) versions of the water maze. All mice received nonspatial pretraining during the first two training days, which prepared them for the subsequent spatial learning test. During the two days, mice were trained to find the platform that was labelled by a small flag (5 cm tall). The hidden platform version was used to determine the retention of memory to find the platform. During the hidden-platform training trials, the escape platform was placed 1 cm below the surface of the water. On each day, the animal was subjected to two trials, each of which lasted for 90 s. The time for the mouse to find the platform (a successful escape) was recorded. […] On the last day (day 6), the platform was removed from its location and the animals were given a probe trial in which they had 90 s to search for the platform. The time taken to reach the missing platform and the number of times the animals crossed the platform location were recorded.
Data for the time of escape latency, the trajectory travelled, and the number of platform location crossings were recorded by SMART 3.0, Panlab, Madrid, Spain and processed by GraphPad Prism 6.0.

[2] = system: PC-12 cells; assay: In vitro cell toxicity on PC-12 cell line (MTT); format: cell-based; conditions: 10, 20, 30 and 50 µM, 24 h
Source text: We focussed on the cell toxicity of the synthesised compounds. Compounds 15b and 15j were selected as representative compounds for the evaluation of their potential cytotoxic effects.
Figure 4. (A) In vitro cell toxicity of 15b and 15j on PC-12 cell line. (B) In vitro hepatotoxicity of 15b and 15j on HepG2 cell line. Data were expressed as mean ± SD (n = 3).
PC12 cell and HepG2 cell (human hepatocellular liver carcinoma cell line purchased from Institute of Materia of Chinese Academy of Medical Science), were grown in DMEM supplemented with 10% FBS at 37 °C in a humidified atmosphere containing 5% CO2. For the experiments, cells (6 × 10^3 cells/well) were seeded in 96-well plate in complete medium. […]

[3] = DPPH radical scavenging activity; conditions: at 1 mM
Description: Compounds 15b and 15j were selected to be evaluated for their 1,1-diphenyl-2-picrylhydrazyl radical scavenging activity (DPPH) compared with trolox as reference compound[12].
Corresponding Authors: clarissa0710@163.com (Y. Chen); sunhaopeng@163.com (H. P.
1.1. Inhibition of self-induced Aβ1–42 aggregation
Inhibitory effect of the compounds on self -induced Aβ1–42 aggregation was determined through a thioflavin T (ThT)-(T3516, Sigma-Aldrich) binding assay.
Firstly, aliquots of 2 μL of Aβ 1–42 (AS-64129–05 Anaspec Inc.) containing 2 mg/mL HFIP (1,1,1,3,3,3-hexafluoro-2-propanol, 52517 (Sigma-Aldrich) were stocked in DMSO).
Then, they were diluted with 0.215M sodium phosphate buffer (pH 8.0) to the final concentration of 500 μM. Test compounds were dissolved in DMSO and then prepared at a concentration of 50 μM by the buffer. Resveratrol was used as a positive control. […]
Fluorescence intensity was read (excitation wavelength 450 nm, emission wavelength 485 nm) on a microplate reader (Thermo, Varioskan Flas h 3001, USA).
The calculation of the inhibitory rate of Aβ 1–42 self-induced aggregation was performed using the following equation: (1 -IFi/IFc) × 100 %. IFi and IFc were the fluorescence intensities measured in the presence and absence of inhibitors, respe ctively, after subtracting the background fluorescence of the 5mM ThT solution. Each compound was measured in triplicate. […]

[4] = biological target: T1, eqBChE (Equus caballus, UniProt P81908); assay: Kinetic study of BChE inhibition (Lineweaver–Burk); format: biochemical; conditions: Lineweaver–Burk plot, 0, 0.5, 1, 2, 5 µM
T1 construct: horse serum BChE (eqBChE, Sigma-Aldrich); purchased Sigma-Aldrich; host or cells: horse serum
Description: In each case, the kinetic type of enzyme inhibition was obtained through the modified Ellman’s method and Lineweaver–Burk secondary plots.
Figure 2. […] (B) Lineweaver–Burk plot for the inhibition of eqBChE by compound 15j at different concentrations of substrate.
[…]. The enzymatic reaction was extended to 7 min for eeAChE and eqBuChE before the determination of the absorption. Vmax and Km values of the Michaelis–Menten kinetics were calculated by nonlinear regression from substrate-velocity curves using GraphPad Prism 6.0. Linear regression was used for fitting the Lineweaver–Burk plots.

T1 sequence (P81908 whole entry): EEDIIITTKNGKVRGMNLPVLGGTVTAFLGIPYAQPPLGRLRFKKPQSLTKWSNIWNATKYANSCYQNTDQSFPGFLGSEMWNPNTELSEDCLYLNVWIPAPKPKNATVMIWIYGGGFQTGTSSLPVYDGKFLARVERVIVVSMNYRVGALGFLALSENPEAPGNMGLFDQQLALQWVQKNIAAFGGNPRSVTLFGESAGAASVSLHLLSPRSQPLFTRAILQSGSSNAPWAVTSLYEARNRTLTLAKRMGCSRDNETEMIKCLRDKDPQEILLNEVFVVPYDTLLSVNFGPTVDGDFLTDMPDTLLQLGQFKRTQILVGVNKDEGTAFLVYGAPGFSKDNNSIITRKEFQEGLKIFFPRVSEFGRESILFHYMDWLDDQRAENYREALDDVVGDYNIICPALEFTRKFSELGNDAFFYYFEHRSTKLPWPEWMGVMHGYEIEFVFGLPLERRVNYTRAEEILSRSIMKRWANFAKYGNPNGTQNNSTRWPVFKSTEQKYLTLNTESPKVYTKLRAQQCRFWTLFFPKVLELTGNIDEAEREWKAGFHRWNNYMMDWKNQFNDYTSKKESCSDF

Row | SMILES | Distance to target [1] | Latency to target [1] | cytotoxicity to PC-12 cells [2] | DPPH inhibitory rate [3] | kinetic type of BChE inhibition [4]
1 | Cc1ccccc1CN1CCC(CNS(=O)(=O)c2ccc3c(c2)n(C)c(=O)n3C)CC1 [Compound 15b, 1,3-dimethyl-N-((1–(2-methylbenzyl)piperidin-4-yl)methyl)-2-oxo-2,3-dihydro-1H-benzo[d]imidazole-5-sulphonamide] | 252.32 ± 8.42 cm | 9.29 ± 0.31 s | no cytotoxicity | 12.2% | –
2 | Cn1c(=O)n(C)c2cc(S(=O)(=O)NCC3CCN(Cc4cccc(Br)c4)CC3)ccc21 [Compound 15j, N-((1–(3-bromobenzyl)piperidin-4-yl)methyl)-1,3-dimethyl-2-oxo-2,3-dihydro-1H-benzo[d]imidazole-5-sulphonamide] | 350.27 ± 16.59 cm | 12.85 ± 0.72 s | no cytotoxicity | 6.3% | competitive
